Data on 20 compounds can be found in US10800767B2, “Thyroid hormone receptor beta agonist compounds” (Terns, Inc., priority 2018, dated 2020).

As a reminder, the EC50 is the midpoint of the concentration-response curve.

Test [1] addresses TR beta-LBD (thyroid hormone receptor beta) (Homo sapiens (Human), UniProt P10828). Put plainly: LanthaScreen TR-FRET Thyroid Receptor beta Coactivator Assay (agonist screening). The format is biochemical. As to conditions: for THRβ-Selectivity: THR beta over THR alpha, derived from T3-selectivity normalized data; for EC50: TR-FRET coactivator assay, TR beta-LBD 1.0 nM, 2 hour incubation, average of duplicate runs, read-out: EC50 THRβ-FRET. Here is the method:
(§1) Example B1: Time-Resolved Fluorescence Resonance Energy Transfer (TR-FRET) Assay for Thyroid Hormone Receptor Agonist Screening
(§2) LanthaScreen™ TR-FRET Thyroid Receptor alpha Coactivator Assay kit (ThermoFisher) and LanthaScreen™ TR-FRET Thyroid Receptor beta Coactivator Assay kit (ThermoFisher) were used for agonist compound screening. Compounds in DMSO were diluted using ECHO Liquid Handler (Labcyte Inc.) into 384 plates in 10-point 3-fold series in duplicate (5 micro M final top concentration). Buffer C (ThermoFisher) was added to each well before the 4× mixture of fluorescein-SCR2-2 coactivator (200 nM final concentration), Terbium-labeled anti-GST antibody (2 nM final concentration), and TR alpha-LBD (0.4 nM final concentration) or TR beta-LBD (1.0 nM final concentration) was added. After 2 hour incubation at room temperature in dark, the TR-FRET signal was measured on an EnVision plate reader (PerkinElmer) with excitation at 340 nm and dual emission readout at 495 and 520 nm with the delay time of 100 micro second and the integration time of 200 micro second. The ratio of emission signal at 520 and at 495 was used to calculate EC50 using GraphPad Prism (GraphPad Software). In every batch of compound screening, T3 (L-3,3′,5-Triiodothyronine sodium salt, >95%) (Calbiochem) was used as reference compound. The EC50 of T3 measured were within 3-fold of the reference value provided by the assay kit manufacturer (ThermoFisher Scientific). The Z′ factors measured in every batch of screening using T3 as high percent effect (HPE) control and 0.5% DMSO as zero percent effect (ZPE) control were in the range of 0.5 to 0.8. Compounds' THR-beta selectivity values are derived from T3-selectivity normalized data.
(TR-FRET usually uses a lanthanide donor and a delayed reading to cut background.)

Test [2] addresses TR alpha-LBD (thyroid hormone receptor alpha) (Homo sapiens (Human), UniProt P10827). Put plainly: LanthaScreen TR-FRET Thyroid Receptor alpha Coactivator Assay (agonist screening). The format is biochemical. As to conditions: TR alpha-LBD 0.4 nM, 2 hour incubation, average of duplicate runs, read-out: EC50 THRα-FRET. Here is the method: as §1, §2

Chain of TR alpha-LBD (thyroid hormone receptor alpha) (P10827 other isoform, or with tags, fused parts or gaps del 1-162, other chains not shown): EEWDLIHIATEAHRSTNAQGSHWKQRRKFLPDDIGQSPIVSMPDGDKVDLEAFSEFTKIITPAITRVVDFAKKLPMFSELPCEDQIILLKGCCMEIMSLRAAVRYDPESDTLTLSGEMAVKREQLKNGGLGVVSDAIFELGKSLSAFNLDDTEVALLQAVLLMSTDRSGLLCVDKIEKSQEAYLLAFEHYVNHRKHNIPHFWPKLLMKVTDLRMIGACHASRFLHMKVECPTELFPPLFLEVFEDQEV
Chain of TR beta-LBD (thyroid hormone receptor beta) (P10828 217-461): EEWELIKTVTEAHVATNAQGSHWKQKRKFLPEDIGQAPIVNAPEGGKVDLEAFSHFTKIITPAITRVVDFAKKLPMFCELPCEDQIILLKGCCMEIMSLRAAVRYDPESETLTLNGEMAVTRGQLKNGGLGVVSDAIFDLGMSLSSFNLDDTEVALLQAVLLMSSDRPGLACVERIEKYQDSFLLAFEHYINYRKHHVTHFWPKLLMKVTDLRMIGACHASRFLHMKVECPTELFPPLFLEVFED

`Cn1nc(Cc2c(Cl)cc(NC(=O)c3noc(=O)[nH]3)cc2Cl)cc(C2CC2)c1=O` [Example 22, N-(3,5-dichloro-4-((5-cyclopropyl-1-methyl-6-oxo-1,6-dihydropyridazin-3-yl)methyl)phenyl)-5-oxo-4,5-dihydro-1,2,4-oxadiazole-3-carboxamide]: in test [1], the THRβ-Selectivity stood at 19.5 and the EC50 is 181 nM. Besides, in test [2], the EC50 was found to be 898 nM.
`CC(C)c1cc(Oc2c(Cl)cc(NC(=O)c3noc(=O)[nH]3)cc2Cl)n[nH]c1=O` [Example 23, N-(3,5-dichloro-4-((5-isopropyl-6-oxo-1,6-dihydropyridazin-3-yl)oxy)phenyl)-5-oxo-4,5-dihydro-1,2,4-oxadiazole-3-carboxamide] returned a THRβ-Selectivity in test [1] of 67.3. Besides, the EC50 in test [1] came out at 87.3 nM; in test [2], 1320 nM.
In the case of `CC(C)c1cc(Oc2c(Cl)cc(NC(=O)c3noc(=O)[nH]3)c3c2CCC3)nn(C)c1=O` [Example 24, N-(6-chloro-7-((5-isopropyl-1-methyl-6-oxo-1,6-dihydropyridazin-3-yl)oxy)-2,3-dihydro-1H-inden-4-yl)-5-oxo-4,5-dihydro-1,2,4-oxadiazole-3-carboxamide], in test [1], the THRβ-Selectivity turned out to be 39.5 and the EC50 is 188 nM. Also, in test [2], the EC50 was 2050 nM.
On to `O=C(Nc1cc(Cl)c(Oc2cc(C3CC3)c(=O)[nH]n2)c(Cl)c1)c1noc(=O)[nH]1` [Example 25, N-(3,5-dichloro-4-((5-cyclopropyl-6-oxo-1,6-dihydropyridazin-3-yl)oxy)phenyl)-5-oxo-4,5-dihydro-1,2,4-oxadiazole-3-carboxamide], for which, in test [1], the THRβ-Selectivity was 42.1 and the EC50 is 231 nM. For the same compound, the EC50 in test [2] was 2420 nM.
The like results for `CC(C)c1cc(Oc2c(Cl)cc(NC(=O)c3noc(=O)[nH]3)c(F)c2Cl)nn(C)c1=O` [Example 26, N-(3,5-dichloro-2-fluoro-4-((5-isopropyl-1-methyl-6-oxo-1,6-dihydropyridazin-3-yl)oxy)phenyl)-5-oxo-4,5-dihydro-1,2,4-oxadiazole-3-carboxamide] were, in that order, 44.6, 58.1 nM and 699 nM.
The like results for `CC(C)c1cc(Oc2c(Cl)cc(NCc3noc(=O)[nH]3)c(F)c2Cl)nn(C)c1=O` [Example 27, 3-(((3,5-dichloro-2-fluoro-4-((5-isopropyl-1-methyl-6-oxo-1,6-dihydropyridazin-3-yl)oxy)phenyl)amino)methyl)-1,2,4-oxadiazol-5(4H)-one] were, in that order, 21.5, 26.8 nM and 144 nM.
As for `CC(C)(C)c1cc(Oc2c(Cl)cc(NC(=O)c3noc(=O)[nH]3)cc2Cl)n[nH]c1=O` [Example 28, N-(4-((5-(tert-butyl)-6-oxo-1,6-dihydropyridazin-3-yl)oxy)-3,5-dichlorophenyl)-5-oxo-4,5-dihydro-1,2,4-oxadiazole-3-carboxamide], the THRβ-Selectivity in test [1] was determined as 67. The EC50 worked out at 286 nM in test [1] and 4260 nM in test [2].
`CC(O)c1cc(Oc2c(Cl)cc(NC(=O)c3noc(=O)[nH]3)cc2Cl)n[nH]c1=O` (stereo not drawn) [Example 29, N-(3,5-dichloro-4-((5-(1-hydroxyethyl)-6-oxo-1,6-dihydropyridazin-3-yl)oxy)phenyl)-5-oxo-4,5-dihydro-1,2,4-oxadiazole-3-carboxamide]: in test [1], the THRβ-Selectivity turned out to be 88.9 and the EC50 is 235 nM. Further, the EC50 in test [2] was 4340 nM.
Consider `C[C@@H](O)c1cc(Oc2c(Cl)cc(NC(=O)c3noc(=O)[nH]3)cc2Cl)n[nH]c1=O` [Example 29P1, (R)—N-(3,5-dichloro-4-((5-(1-hydroxyethyl)-6-oxo-1,6-dihydropyridazin-3-yl)oxy)phenyl)-5-oxo-4,5-dihydro-1,2,4-oxadiazole-3-carboxamide], for which, in test [1], the THRβ-Selectivity is recorded as more than 10.4 and the EC50 was found to be 2640 nM. In test [2], the EC50 is more than 5000 nM.
Turning to `C[C@H](O)c1cc(Oc2c(Cl)cc(NC(=O)c3noc(=O)[nH]3)cc2Cl)n[nH]c1=O` [Example 29P2, (S)—N-(3,5-dichloro-4-((5-(1-hydroxyethyl)-6-oxo-1,6-dihydropyridazin-3-yl)oxy)phenyl)-5-oxo-4,5-dihydro-1,2,4-oxadiazole-3-carboxamide], the THRβ-Selectivity in test [1] is listed as 80.8. The EC50 in test [1] stood at 91.3 nM; in test [2] it was 1760 nM.
The like results for `Cc1cc(NC(=O)c2noc(=O)[nH]2)cc(C)c1Cc1cc(C(C)C)c(=O)[nH]n1` [Example 30, N-(4-((5-isopropyl-6-oxo-1,6-dihydropyridazin-3-yl)methyl)-3,5-dimethylphenyl)-5-oxo-4,5-dihydro-1,2,4-oxadiazole-3-carboxamide] were, in that order, 14.3, 821 nM and 3110 nM.
In test [1], `O=C(Nc1cc(Cl)c(Oc2cc(C34CC(C3)C4)c(=O)[nH]n2)c(Cl)c1)c1noc(=O)[nH]1` [Example 31, N-(4-((5-(bicyclo[1.1.1]pentan-1-yl)-6-oxo-1,6-dihydropyridazin-3-yl)oxy)-3,5-dichlorophenyl)-5-oxo-4,5-dihydro-1,2,4-oxadiazole-3-carboxamide] came in with a THRβ-Selectivity of more than 34.8. Further, the EC50 was 600 nM in test [1] and more than 5000 nM in test [2].
Turning to `CCC(O)c1cc(Oc2c(Cl)cc(NC(=O)c3noc(=O)[nH]3)cc2Cl)n[nH]c1=O` (stereo not drawn) [Example 32, N-(3,5-dichloro-4-((5-(1-hydroxypropyl)-6-oxo-1,6-dihydropyridazin-3-yl)oxy)phenyl)-5-oxo-4,5-dihydro-1,2,4-oxadiazole-3-carboxamide], in test [1], the THRβ-Selectivity is reported as 77.9 and the EC50 is 86.4 nM. For the same compound, in test [2], the EC50 was found to be 1550 nM.
In turn, `CC[C@@H](O)c1cc(Oc2c(Cl)cc(NC(=O)c3noc(=O)[nH]3)cc2Cl)n[nH]c1=O` [Example 32P1, (R)—N-(3,5-dichloro-4-((5-(1-hydroxypropyl)-6-oxo-1,6-dihydropyridazin-3-yl)oxy)phenyl)-5-oxo-4,5-dihydro-1,2,4-oxadiazole-3-carboxamide] registered a THRβ-Selectivity in test [1] of 27.9. In addition, the EC50 in test [1] was determined as 450 nM; in test [2], 4230 nM.
Regarding `CC[C@H](O)c1cc(Oc2c(Cl)cc(NC(=O)c3noc(=O)[nH]3)cc2Cl)n[nH]c1=O` [Example 32P2, (S)—N-(3,5-dichloro-4-((5-(1-hydroxypropyl)-6-oxo-1,6-dihydropyridazin-3-yl)oxy)phenyl)-5-oxo-4,5-dihydro-1,2,4-oxadiazole-3-carboxamide], in test [1], the THRβ-Selectivity came to 81 and the EC50 was 43.3 nM. For the same compound, the EC50 in test [2] is 1150 nM.
`CC(C)(O)c1cc(Oc2c(Cl)cc(NC(=O)c3noc(=O)[nH]3)cc2Cl)n[nH]c1=O` [Example 33, N-(3,5-dichloro-4-((5-(2-hydroxypropan-2-yl)-6-oxo-1,6-dihydropyridazin-3-yl)oxy)phenyl)-5-oxo-4,5-dihydro-1,2,4-oxadiazole-3-carboxamide]: in test [1], the THRβ-Selectivity was more than 84.3. For the same compound, the values for the EC50 in test [1] and in test [2] were 212 nM and more than 5000 nM, respectively.
With `CC(C)c1cc(Oc2c(Cl)cc(NC(=O)c3noc(=O)[nH]3)c(F)c2Cl)n[nH]c1=O` [Example 34, N-(3,5-dichloro-2-fluoro-4-((5-isopropyl-6-oxo-1,6-dihydropyridazin-3-yl)oxy)phenyl)-5-oxo-4,5-dihydro-1,2,4-oxadiazole-3-carboxamide], in test [1], the THRβ-Selectivity is given as 10.9 and the EC50 was determined as 166 nM. For the same compound, in test [2], the EC50 is 577 nM.
On to `CC(CO)c1cc(Oc2c(Cl)cc(NC(=O)c3noc(=O)[nH]3)cc2Cl)nn(C)c1=O` (stereo not drawn) [Example 35, N-(3,5-dichloro-4-((5-(1-hydroxypropan-2-yl)-1-methyl-6-oxo-1,6-dihydropyridazin-3-yl)oxy)phenyl)-5-oxo-4,5-dihydro-1,2,4-oxadiazole-3-carboxamide], for which, in test [1], the THRβ-Selectivity amounted to 15.8 and the EC50 came out at 762 nM. Further, the EC50 in test [2] was 2600 nM.
`CC(CO)c1cc(Oc2c(Cl)cc(NC(=O)c3noc(=O)[nH]3)cc2Cl)n[nH]c1=O` (stereo not drawn) [Example 36, N-(3,5-dichloro-4-((5-(1-hydroxypropan-2-yl)-6-oxo-1,6-dihydropyridazin-3-yl)oxy)phenyl)-5-oxo-4,5-dihydro-1,2,4-oxadiazole-3-carboxamide]: in test [1], the THRβ-Selectivity is given as more than 15.7 and the EC50 was found to be 468 nM. Further, the half-maximal effective concentration (EC50) in test [2] is more than 5000 nM.
On to `Cn1nc(Oc2c(Cl)cc(NC(=O)c3noc(=O)[nH]3)cc2Cl)cc(C(C)(C)O)c1=O` [Example 37, N-(3,5-dichloro-4-((5-(2-hydroxypropan-2-yl)-1-methyl-6-oxo-1,6-dihydropyridazin-3-yl)oxy)phenyl)-5-oxo-4,5-dihydro-1,2,4-oxadiazole-3-carboxamide], for which, in test [1], the THRβ-Selectivity is 15.5 and the EC50 amounted to 34.5 nM. Moreover, the EC50 in test [2] came out at 212 nM.
